Source: patent publication US8487107B2, “Biphenyl compounds useful as muscarinic receptor antagonists” (Theravance, Inc., priority 2005, dated 2013)
Structures can show the parent of a compound that is named as a salt.

Key:
[1] = Dynamic moisture sorption (DMS) assessment; type: physicochemical
Experimental: A dynamic moisture sorption (DMS) assessment (also known as a moisture sorption-desorption profile) was performed for samples of the crystalline diacetate salt using a VTI atmospheric microbalance, SGA-100 system (VTI Corp., Hialeah, Fla. 33016). A sample size of approximately 10 mg was used and the humidity was set at the ambient value at the start of the analysis. A typical DMS analysis consisted of three scans: ambient to 2% relative humidity (RH), 2% RH to 90% RH, 90% RH to 5% RH at a scan rate of 5% RH/step. The mass was measured every two minutes and the RH was changed to the next value (+/−5% RH) when the mass of the sample was stable to within 0.01% for 5 consecutive points.

[2] = DSC thermal analysis (thermal decomposition); type: physicochemical; conditions: DSC trace, heating ramp 10° C./min
Experimental: DSC was performed using a TA Instruments Model Q-10 module with a Thermal Analyst controller, and data were collected and analyzed using TA Instruments Thermal Solutions software. A sample of about 1 mg of the crystalline diacetate salt was accurately weighed into an aluminum pan with lid, and evaluated using a linear heating ramp of 10° C./min from ambient temperature to approximately 300° C. The DSC cell was purged with dry nitrogen during use. A representative DSC trace for this salt is shown in FIG. 2 and depicts one transition at about 114° C., no thermal decomposition below about 160° C., and maximum endothermic heat flow at about 112° C.

SMILES | weight gain when exposed to up to 90% RH (DMS, reversible sorption/desorption profile) [1] | no thermal decomposition below (DSC) [2] [°C]
CN(CCN1CCC(OC(=O)Nc2ccccc2-c2ccccc2)CC1)C(=O)c1cccc(C(=O)NCCNCc2ccc(O)cc2)c1 [crystalline monooxalate salt, Biphenyl-2-ylcarbamic Acid 1-[2-({3-[2-(4-Hydroxybenzylamino)ethylcarbamoyl]benzoyl}methylamino)ethyl]piperidin-4-yl Ester] | less than 14% | ≥ 150
CN(CCN1CCC(OC(=O)Nc2ccccc2-c2ccccc2)CC1)C(=O)c1cccc(C(=O)NCCNCc2ccc(O)cc2)c1 [crystalline diacetate salt, biphenyl-2-ylcarbamic acid 1-[2-({3-[2-(4-hydroxybenzylamino)ethylcarbamoyl]benzoyl}methylamino)ethyl]piperidin-4-yl ester] | less than 18% | ≥ 160
CN(CCN1CCC(OC(=O)Nc2ccccc2-c2ccccc2)CC1)C(=O)c1cccc(C(=O)NCCNCc2ccc(O)cc2)c1 [crystalline dipropionate salt, Biphenyl-2-ylcarbamic Acid 1-[2-({3-[2-(4-Hydroxybenzylamino)ethylcarbamoyl]benzoyl}methylamino)ethyl]piperidin-4-yl Ester] | less than 11% | ≥ 150
